# Experimental data as given in ChEMBL document CHEMBL1145531, “Cyclopentanone ring-cleaved pleuromutilin derivatives” (2007).
# Assays:
# Staphylococcus aureus = test: Antibacterial activity against Staphylococcus aureus A15090 after 24 hrs; type: functional; settings: A15090, 24 h
# Streptococcus pneumoniae = test: Antibacterial activity against Streptococcus pneumoniae A9585 after 24 hrs; type: functional; settings: A9585, 24 h
Compound,MIC (Staphylococcus aureus),MIC (Streptococcus pneumoniae)
C=C[C@]1(C)C[C@@H](OC(=O)CSc2cc(C)nc(C)c2)[C@@]2(C)C(=O)[C@](CCC(=O)N(CC)CC)(CCC2C)[C@@H](C)[C@@H]1O (stereo not given in full),32 µg/mL,4 µg/mL
C=C[C@]1(C)C[C@@H](OC(=O)CSc2ccccc2C(=O)O)[C@@]2(C)C(=O)[C@](CCC(=O)N(CC)CC)(CCC2C)[C@@H](C)[C@@H]1O (stereo not given in full),32 µg/mL,4 µg/mL
C=C[C@]1(C)C[C@@H](OC(=O)CO)[C@]2(C)[C@H](C)CC[C@]3(CCC(=O)[C@@H]32)[C@@H](C)[C@@H]1O [PLEUROMUTILIN],0.5 µg/mL,0.5 µg/mL
C=C[C@]1(C)C[C@@H](OC(=O)CSc2cccc(N)c2)[C@@]2(C)C(=O)[C@](CCC(=O)N(CC)CC)(CCC2C)[C@@H](C)[C@@H]1O (stereo not given in full),32 µg/mL,4 µg/mL
C=C[C@]1(C)C[C@@H](OC(=O)CSc2ccccn2)[C@@]2(C)C(=O)[C@](CCC(=O)OCC)(CCC2C)[C@@H](C)[C@@H]1O (stereo not given in full),1 µg/mL,1 µg/mL
C=C[C@]1(C)C[C@@H](OC(=O)CSc2cccc(N)c2)[C@@]2(C)C(=O)[C@](CCC(=O)NCC(=O)O)(CCC2C)[C@@H](C)[C@@H]1O (stereo not given in full),8 µg/mL,2 µg/mL
C=C[C@]1(C)C[C@@H](OC(=O)CSc2cccc(N)c2)[C@@]2(C)C(=O)[C@](CCC(=O)OCC)(CCC2C)[C@@H](C)[C@@H]1O (stereo not given in full),1 µg/mL,1 µg/mL
C=C[C@]1(C)C[C@@H](OC(=O)CSc2cccc(N)c2)[C@@]2(C)C(=O)[C@](CCC)(CCC2C)[C@@H](C)[C@@H]1O (stereo not given in full),16 µg/mL,8 µg/mL
C=C[C@]1(C)C[C@@H](OC(=O)CSc2ccncc2)[C@@]2(C)C(=O)[C@](CCC(=O)OCC)(CCC2C)[C@@H](C)[C@@H]1O (stereo not given in full),8 µg/mL,8 µg/mL
C=C[C@]1(C)C[C@@H](OC(=O)CSc2cccc(N)c2)[C@@]2(C)C(=O)[C@](CCC(=O)NCC(=O)OC(C)(C)C)(CCC2C)[C@@H](C)[C@@H]1O (stereo not given in full),4 µg/mL,0.5 µg/mL

# Results, then the compound that gave them:
MIC (Staphylococcus aureus),MIC (Streptococcus pneumoniae),Compound
128 µg/mL,64 µg/mL,C=C[C@]1(C)C[C@@H](OC(=O)CO)[C@@]2(C)C(=O)[C@](CCC(N)=O)(CCC2C)[C@@H](C)[C@@H]1O (stereo not given in full)
> 128 µg/mL,> 64 µg/mL,C=C[C@]1(C)C[C@@H](OC(=O)CO)[C@@]2(C)C(=O)[C@](CCN)(CCC2C)[C@@H](C)[C@@H]1O (stereo not given in full)
> 128 µg/mL,> 64 µg/mL,C=C[C@]1(C)C[C@@H](OC(=O)CO)[C@@]2(C)C(=O)[C@](CCC(=O)NCC)(CCC2C)[C@@H](C)[C@@H]1O (stereo not given in full)
8 µg/mL,8 µg/mL,C=C[C@]1(C)C[C@@H](OC(=O)CSc2ccccn2)[C@@]2(C)C(=O)[C@](CCC(=O)O)(CCC2C)[C@@H](C)[C@@H]1O (stereo not given in full)
128 µg/mL,64 µg/mL,C=C[C@]1(C)C[C@@H](OC(=O)CSc2ccncc2)[C@@]2(C)C(=O)[C@](CCC(=O)O)(CCC2C)[C@@H](C)[C@@H]1O (stereo not given in full)
16 µg/mL,0.25 µg/mL,C=C[C@]1(C)C[C@@H](OC(=O)CO)[C@@]2(C)C(=O)[C@](CCNC(=O)OCC)(CCC2C)[C@@H](C)[C@@H]1O (stereo not given in full)
0.25 µg/mL,0.125 µg/mL,C=C[C@]1(C)C[C@@H](OC(=O)CSc2cccc(N)c2)[C@@]2(C)C(=O)[C@](CCC(=O)O)(CCC2C)[C@@H](C)[C@@H]1O (stereo not given in full)
8 µg/mL,8 µg/mL,C=C[C@]1(C)C[C@@H](OC(=O)CO)[C@@]2(C)C(=O)[C@](CCC(=O)O)(CCC2C)[C@@H](C)[C@@H]1O (stereo not given in full)
> 128 µg/mL,> 64 µg/mL,C=C[C@]1(C)C[C@@H](OC(=O)CO)[C@@]2(C)C(=O)[C@](CCC(=O)N(CC)CC)(CCC2C)[C@@H](C)[C@@H]1O (stereo not given in full)
32 µg/mL,2 µg/mL,C=C[C@]1(C)C[C@@H](OC(=O)CO)[C@@]2(C)C(=O)[C@](CCCNC(=O)c3ccno3)(CCC2C)[C@@H](C)[C@@H]1O (stereo not given in full)
> 128 µg/mL,> 64 µg/mL,C=C[C@]1(C)C[C@@H](OC(=O)CSc2ccccc2)[C@@]2(C)C(=O)[C@](CCC(=O)O)(CCC2C)[C@@H](C)[C@@H]1O (stereo not given in full)
8 µg/mL,4 µg/mL,C=C[C@]1(C)C[C@@H](OC(=O)CSc2ccccc2O)[C@@]2(C)C(=O)[C@](CCC(=O)O)(CCC2C)[C@@H](C)[C@@H]1O (stereo not given in full)
> 128 µg/mL,> 64 µg/mL,C=C[C@]1(C)C[C@@H](OC(=O)CO)[C@@]2(C)C(=O)[C@](CCCO)(CCC2C)[C@@H](C)[C@@H]1O (stereo not given in full)
16 µg/mL,0.25 µg/mL,C=C[C@]1(C)C[C@@H](OC(=O)CO)[C@@]2(C)C(=O)[C@](CCNC(=O)OCc3ccccc3)(CCC2C)[C@@H](C)[C@@H]1O (stereo not given in full)
> 128 µg/mL,> 64 µg/mL,C=C[C@]1(C)C[C@@H](OC(=O)CSc2nnc(N)[nH]2)[C@@]2(C)C(=O)[C@](CCC(=O)O)(CCC2C)[C@@H](C)[C@@H]1O (stereo not given in full)
